{"source": "patent US20060089335A1", "about": "“Compositions and methods for enhancing cognitive function and synaptic plasticity” (priority 2003, published 2006)", "molecules": {"B1": {"name": "BDNF: neurotrophin known to increase the Pr of synaptic terminals (protein, UniProt P23560 19-247, looked up)", "Neurotrophic factor BDNF …": "APMKEANIRGQGGLAYPGVRTHGTLESVNGPKAGSRGLTSLADTFEHVIEELLDEDQKVRPNEENNKDADLYTSRVMLSSQVPLEPPLLFLLEEYKNYLDAANMSMRVRRHSDPARRGELSVCDSISEWVTAADKKTAVDMSGGTVTVLEKVPVSKGQLKQYFYETKCNPMGYTKEGCRGIDKRHWNSQCRTTQSYVRALTMDSKKRIGWRFIRIDTSCVCTLTIKRGR"}}, "key": {"[1]": {"target": "T1, GABAB receptor (Rattus norvegicus, UniProt O88871+Q9Z0U4)", "T1 construct": "GABAB receptor-mediated hyperpolarizing responses to baclofen in rat neocortical slices (Kerr, 2003); host or cells: rat neocortical slices (tissue, endogenous receptor)", "T1 sequence (O88871 41-940)": "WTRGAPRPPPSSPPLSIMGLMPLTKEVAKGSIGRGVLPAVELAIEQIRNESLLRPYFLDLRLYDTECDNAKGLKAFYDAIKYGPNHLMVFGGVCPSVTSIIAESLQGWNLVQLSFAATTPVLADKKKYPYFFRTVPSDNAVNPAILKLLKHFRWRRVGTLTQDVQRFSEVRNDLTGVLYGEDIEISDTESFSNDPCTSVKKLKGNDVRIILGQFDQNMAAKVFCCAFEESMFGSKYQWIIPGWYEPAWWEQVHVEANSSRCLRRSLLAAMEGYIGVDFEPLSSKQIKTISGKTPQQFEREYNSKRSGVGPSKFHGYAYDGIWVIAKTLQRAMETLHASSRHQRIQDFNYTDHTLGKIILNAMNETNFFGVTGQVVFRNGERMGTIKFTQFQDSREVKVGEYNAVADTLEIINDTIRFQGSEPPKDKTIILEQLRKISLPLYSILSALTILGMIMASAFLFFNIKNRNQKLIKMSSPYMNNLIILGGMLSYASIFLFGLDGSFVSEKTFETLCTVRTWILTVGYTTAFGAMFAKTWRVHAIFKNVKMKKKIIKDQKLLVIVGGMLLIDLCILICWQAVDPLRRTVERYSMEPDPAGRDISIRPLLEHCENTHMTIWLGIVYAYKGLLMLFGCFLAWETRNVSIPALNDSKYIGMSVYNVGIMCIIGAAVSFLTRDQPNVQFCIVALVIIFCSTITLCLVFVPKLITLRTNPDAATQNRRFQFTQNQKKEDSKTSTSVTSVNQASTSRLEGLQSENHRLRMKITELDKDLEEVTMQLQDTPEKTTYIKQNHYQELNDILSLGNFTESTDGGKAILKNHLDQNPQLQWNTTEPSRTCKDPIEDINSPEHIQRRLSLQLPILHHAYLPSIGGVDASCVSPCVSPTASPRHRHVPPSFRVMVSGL", "T1 sequence (Q9Z0U4 17-960)": "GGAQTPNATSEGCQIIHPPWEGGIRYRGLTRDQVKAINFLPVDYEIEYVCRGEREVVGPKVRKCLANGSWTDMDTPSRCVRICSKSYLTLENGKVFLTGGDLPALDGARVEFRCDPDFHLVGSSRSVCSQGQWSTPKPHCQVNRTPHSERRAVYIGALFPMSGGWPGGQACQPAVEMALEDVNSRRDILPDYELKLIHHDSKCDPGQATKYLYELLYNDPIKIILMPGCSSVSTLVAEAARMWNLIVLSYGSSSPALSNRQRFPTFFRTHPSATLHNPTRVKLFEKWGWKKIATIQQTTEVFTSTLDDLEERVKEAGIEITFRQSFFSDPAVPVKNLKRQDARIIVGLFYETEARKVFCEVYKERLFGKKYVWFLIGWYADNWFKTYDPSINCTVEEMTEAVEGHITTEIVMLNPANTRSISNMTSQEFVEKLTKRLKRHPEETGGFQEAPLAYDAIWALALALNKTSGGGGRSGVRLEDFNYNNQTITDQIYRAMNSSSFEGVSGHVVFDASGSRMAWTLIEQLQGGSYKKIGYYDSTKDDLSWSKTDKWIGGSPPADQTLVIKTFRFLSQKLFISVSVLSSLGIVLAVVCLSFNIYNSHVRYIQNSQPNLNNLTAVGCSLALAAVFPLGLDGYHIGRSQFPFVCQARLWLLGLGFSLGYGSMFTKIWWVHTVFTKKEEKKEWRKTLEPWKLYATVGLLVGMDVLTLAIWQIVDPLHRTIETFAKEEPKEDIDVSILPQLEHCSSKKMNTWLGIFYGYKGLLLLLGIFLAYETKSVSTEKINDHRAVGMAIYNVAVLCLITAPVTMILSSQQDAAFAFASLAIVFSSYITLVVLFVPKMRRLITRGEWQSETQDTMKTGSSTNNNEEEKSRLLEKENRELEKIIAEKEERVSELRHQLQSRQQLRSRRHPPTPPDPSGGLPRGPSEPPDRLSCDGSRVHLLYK", "settings": "rat neocortical slices; cited from earlier work"}, "[2]": {"system": "presynaptic terminals of cultured hippocampal neurons", "assay": "TBS-induced presynaptic plasticity measured by FM 1-43 dye uptake in hippocampal cultures", "assay_type": "cell-based, rat", "settings": "for TBS-induced potentiation / plasticity after prolonged treatment: 48 hours of incubation"}, "[3]": {"system": "excitatory and inhibitory terminals", "settings": "short treatment (2-24 hr)"}, "[4]": {"system": "cultured hippocampal neurons", "assay": "control recordings of membrane potential, synaptic inputs and firing", "assay_type": "cell-based, rat", "settings": "treatments of FIG. 5D", "description": "(§1) Electrophysiology. Dual whole cell perforated patch clamp recordings were made on two interconnected cultured hippocampal pyramidal neurons. Perforated patch pipettes were front-filled with a solution containing (in mM): CsOH, 127; D-gluconic acid, 127; CsCl, 4; HEPES, 10; NaCl, 8; EGTA, 0.4; pH was adjusted to 7.25 with CsOH, and then back-filled with the same solution containing […] amphotericin B (Sigma, St. Louis, Mo.). Extracellular solution contained (in mM): NaCl, 145; KCl, 3; glucose, 15; HEPES, 10; MgCl2, 0.8-1.2; CaCl2, 1.2; 0.005 glycine (Sigma), 0.05 picrotoxin (Sigma); pH adjusted to 7.4 with NaOH. MgCl2 concentration was matched to its concentration in culture medium. In experiments where effects of drugs on neuronal activity were quantified (FIG. 4D), recordings were done in culture medium (with HEPES replacing bicarbonate/CO2 to maintain pH). All experiments were performed at room temperature. For assaying synaptic connectivity, each neuron was stimulated by 1 ms step depolarization from −70 to +30 mV in voltage-clamp mode. Only neurons with monosynaptic connections were used. […] Recordings with access resistance>20 MΩ or that varied substantially were rejected from analysis."}, "[5]": {"target": "NMDA receptors (NR2B-containing) (Rattus norvegicus, UniProt P35439+Q00960)", "sequence (Q00960 27-1482, other chains not shown)": "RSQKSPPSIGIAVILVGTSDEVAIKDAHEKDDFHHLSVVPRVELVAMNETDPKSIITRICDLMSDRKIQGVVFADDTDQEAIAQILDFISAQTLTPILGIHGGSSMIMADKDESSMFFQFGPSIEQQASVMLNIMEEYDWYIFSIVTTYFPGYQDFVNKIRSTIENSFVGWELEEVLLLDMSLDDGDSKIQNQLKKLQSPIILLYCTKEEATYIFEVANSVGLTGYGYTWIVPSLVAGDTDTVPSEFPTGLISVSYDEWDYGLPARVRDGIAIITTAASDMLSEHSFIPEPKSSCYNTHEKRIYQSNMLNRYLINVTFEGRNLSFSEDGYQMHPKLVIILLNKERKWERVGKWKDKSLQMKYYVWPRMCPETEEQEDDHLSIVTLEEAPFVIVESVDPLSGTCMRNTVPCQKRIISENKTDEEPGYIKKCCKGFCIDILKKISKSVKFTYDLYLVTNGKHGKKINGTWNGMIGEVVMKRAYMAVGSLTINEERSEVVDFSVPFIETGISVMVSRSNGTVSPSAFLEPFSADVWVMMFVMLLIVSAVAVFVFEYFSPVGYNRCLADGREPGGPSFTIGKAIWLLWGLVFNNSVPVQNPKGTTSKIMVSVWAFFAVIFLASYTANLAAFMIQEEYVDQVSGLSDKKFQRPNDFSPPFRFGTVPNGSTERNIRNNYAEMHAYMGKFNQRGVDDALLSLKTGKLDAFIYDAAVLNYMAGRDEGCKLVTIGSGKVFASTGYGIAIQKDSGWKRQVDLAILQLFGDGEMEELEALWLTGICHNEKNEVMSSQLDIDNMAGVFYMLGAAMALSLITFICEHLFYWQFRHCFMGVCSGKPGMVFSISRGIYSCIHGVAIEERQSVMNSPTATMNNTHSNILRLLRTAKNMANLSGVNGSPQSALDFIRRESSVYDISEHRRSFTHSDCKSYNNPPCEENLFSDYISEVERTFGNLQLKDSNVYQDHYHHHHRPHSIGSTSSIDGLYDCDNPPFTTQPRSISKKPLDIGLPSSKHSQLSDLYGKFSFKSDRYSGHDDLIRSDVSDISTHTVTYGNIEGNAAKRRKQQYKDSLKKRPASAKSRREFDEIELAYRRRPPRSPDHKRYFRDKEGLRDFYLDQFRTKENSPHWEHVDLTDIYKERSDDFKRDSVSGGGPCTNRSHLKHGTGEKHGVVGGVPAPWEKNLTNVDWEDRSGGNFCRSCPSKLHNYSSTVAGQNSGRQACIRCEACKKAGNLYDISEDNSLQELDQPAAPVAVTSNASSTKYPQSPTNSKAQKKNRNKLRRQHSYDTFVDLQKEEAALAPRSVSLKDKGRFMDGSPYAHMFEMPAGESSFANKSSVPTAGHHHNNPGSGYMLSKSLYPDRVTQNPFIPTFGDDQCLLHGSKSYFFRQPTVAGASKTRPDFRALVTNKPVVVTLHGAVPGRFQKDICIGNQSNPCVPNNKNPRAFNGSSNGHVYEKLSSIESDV", "assay": "evoked NMDA currents ([…]), double-perforated patch", "assay_type": "cell-based", "description": "as §1\nWe hypothesized that one target may be the number and properties of NMDA receptors at individual synapses."}, "[6]": {"system": "postsynaptic locations of cultured hippocampal neurons", "assay": "postsynaptic evoked current response to iontophoretic glutamate (AMPA-R insertion)", "assay_type": "cell-based, rat", "settings": "Mg^++-treated culture; reversed by washout", "text": "These were generally as described in the preceding examples. Glutamatergic iontophoresis was perfomed as described [Murnick 2000].\nSince we wished to correlate the above pre-synaptic findings to the plasticity of single or small clusters of postsynaptic locations, this ruled out traditional double-patch plasticity experiments in which heterogeneous populations of connections are studied. Such studies also usually confound pre-synaptic and postsynaptic effects. For this purpose, we developed a technique of high-temporal and spatial resolution glutamatergic iontophoresis that allows us to stimulate single or small clusters of postsynaptic locations (resolution ˜2 μm, 1 ms; [Murnick 2000]).\nTo determine whether a decrease in overall activity of a neural network leads to increased plasticity (i.e., an increase in synaptic strength in response to a pattern of stimulation) of postsynaptic locations, we assessed the effect of treatment with Mg^++ on the ability of postsynaptic locations to respond to glutamate. As described above, Mg^++ blocks the NMDA receptor channel at resting membrane potential, so Mg^++ treatment reduces the overall activity level of the neural network. As also described above, increases in postsynaptic intracellular Ca^++ stimulated by activation of NMDA receptors leads to recruitment of AMPA receptors and their insertion into the postsynaptic membrane. […]"}, "[7]": {"system": "structural synaptic terminals", "assay": "FM dye uptake of structural synaptic terminals, 30 AP protocol", "assay_type": "cell-based, rat", "settings": "100 ng/ml BDNF", "description": "FM 1-43 Loading and Destaining. Functional presynaptic boutons were stained with 10 μM FM 1-43 (synaptogreen, Biotium) by eliciting 30 APs at 0.5-1 Hz. This loading protocol was chosen to avoid short-term plasticity and “re-use” of vesicles through “kiss-run” mode of exocytosis (Aravanis et al., 2003). The neurons were stimulated to fire action potentials by passing 1 ms 50 mA current through platinum electrodes placed at a distance of 7 mm from both sides of the chamber. To ensure reliable action potential initiation, the current amplitude was chosen to be 50% above the threshold for action potential generation, as confirmed by whole-cell patch clamp recording. To prevent recurrent activity, excitatory postsynaptic responses were blocked completely by the addition of DL-AP5 (50 μM, Sigma) and NBQX (10 μM, Sigma) during FM loading and unloading procedures. […]\nTo further determine the number of these very low Pr terminals and their proportion to the whole population of functional synaptic terminals, we compared the co-localization of FM puncta obtained for the 30 AP loading with puncta obtained using fluorescent antibodies against specific presynaptic proteins. […] Twenty percent more functional synapses were detected by this procedure, also consistent with a previous report (Murthy et al., 1997). […]"}}, "note": "“And” between values parts separate entries of the source, which are not always exact repeats. Equal entries are not always repeated. “Also recorded” adds a separate entry of the source. Peptide text beside a SMILES is read from it."}
{"molecule": "N=C(N)NCCC[C@H](N)C(=O)O", "note": "[L-Arg]", "values": [{"measurement": "potency as potentiator of GABAB receptor-mediated hyperpolarizing responses to baclofen", "setting": "[1]", "result": "less potent"}]}
{"molecule": "N[C@@H](CS)C(=O)O", "note": "[L-Cys]", "values": [{"measurement": "potency as potentiator of GABAB receptor-mediated hyperpolarizing responses to baclofen", "setting": "[1]", "result": "less potent"}]}
{"molecule": "N[C@@H](CSSC[C@H](N)C(=O)O)C(=O)O", "note": "[L-Cystine]", "values": [{"measurement": "potency as potentiator of GABAB receptor-mediated hyperpolarizing responses to baclofen", "setting": "[1]", "result": "less potent"}]}
{"molecule": "CC(C)C[C@H](N)C(=O)O", "note": "[L-Leu]", "values": [{"measurement": "potency as potentiator of GABAB receptor-mediated hyperpolarizing responses to baclofen", "setting": "[1]", "result": "Most potent"}]}
{"molecule": "CSCC[C@H](N)C(=O)O", "note": "[L-Met]", "values": [{"measurement": "potency as potentiator of GABAB receptor-mediated hyperpolarizing responses to baclofen", "setting": "[1]", "result": "less potent"}]}
{"molecule": "CC(C)C[C@H](NC(=O)[C@@H](N)Cc1ccccc1)C(=O)O", "note": "[L-Phe-Leu] (H-Phe-Leu-OH)", "values": [{"measurement": "potency as potentiator of GABAB receptor-mediated hyperpolarizing responses to baclofen", "setting": "[1]", "result": "Most potent"}]}
{"molecule": "N[C@@H](Cc1ccccc1)C(=O)N[C@@H](Cc1ccccc1)C(=O)O", "note": "[L-Phe-Phe] (H-Phe-Phe-OH)", "values": [{"measurement": "potency as potentiator of GABAB receptor-mediated hyperpolarizing responses to baclofen", "setting": "[1]", "result": "Most potent"}]}
{"molecule": "N[C@@H](Cc1ccccc1)C(=O)O", "note": "[L-Phe]", "values": [{"measurement": "potency as potentiator of GABAB receptor-mediated hyperpolarizing responses to baclofen", "setting": "[1]", "result": "Most potent"}]}
{"molecule": "N[C@@H](CO)C(=O)O", "note": "[L-Ser]", "values": [{"measurement": "potency as potentiator of GABAB receptor-mediated hyperpolarizing responses to baclofen", "setting": "[1]", "result": "less potent"}]}
{"molecule": "C[C@@H](O)[C@H](N)C(=O)O", "note": "[L-Thr]", "values": [{"measurement": "potency as potentiator of GABAB receptor-mediated hyperpolarizing responses to baclofen", "setting": "[1]", "result": "less potent"}]}
{"molecule": "N[C@@H](Cc1ccc(O)cc1)C(=O)O", "note": "[L-Tyr]", "values": [{"measurement": "potency as potentiator of GABAB receptor-mediated hyperpolarizing responses to baclofen", "setting": "[1]", "result": "less potent"}]}
{"molecule": "CC(C)[C@H](N)C(=O)O", "note": "[L-Val]", "values": [{"measurement": "potency as potentiator of GABAB receptor-mediated hyperpolarizing responses to baclofen", "setting": "[1]", "result": "less potent"}]}
{"molecule": "NS(=O)(=O)c1cccc2c1c([N+](=O)[O-])cc1nc(O)c(O)nc12", "note": "[NBQX, reference compound]", "values": [{"measurement": "TBS-induced potentiation / plasticity after prolonged treatment", "setting": "[2]", "result": "no significant TBS-induced potentiation; also recorded: lose plasticity"}, {"measurement": "change of synaptic density", "setting": "[3]", "result": "No short treatment (2-24 hr, baclofen, nimodepine, NBQX, and TTX) produced a significant change of synaptic density"}]}
{"molecule": "[Zn+2]", "note": "[Zn^++]", "values": [{"measurement": "plasticity of presynaptic terminals after partial block of Ca flux", "setting": "[2]; 0.4 mM Mg^++ added or 5 mM Zn^++ two weeks, 10 mM nimodipine 2 days", "result": "significant increases of plasticity"}, {"measurement": "optimal concentration for plasticity (maximal potentiability)", "setting": "[2]; 2 weeks treatment", "result": 2, "unit": "mM"}, {"measurement": "increase of synaptic strength at optimum concentration", "setting": "[2]; FIGS. 6H-6J", "result": "up to approximately five-fold"}, {"measurement": "change in average firing rates of neurons within cultured neural networks", "setting": "[4]", "result": "none of these treatments induces a significant change"}]}
{"molecule": "CN1C(=O)CN=C(c2ccccc2F)c2cc([N+](=O)[O-])ccc21", "note": "[flunitrazepam, reference compound]", "values": [{"measurement": "TBS-induced potentiation / plasticity after prolonged treatment", "setting": "[2]", "result": "no significant TBS-induced potentiation; also recorded: lose plasticity"}]}
{"molecule": "CC(C(O)c1ccc(O)cc1)N1CCC(Cc2ccccc2)CC1", "note": "(stereo not drawn) [ifenprodil]", "values": [{"measurement": "reduction of TBS-induced presynaptic potentiation", "setting": "[2]; 1 μM ifenprodil, 1.2 mM Mg^2+ cultures", "result": "50% and 48±7%"}, {"measurement": "reduction of current", "setting": "[5]", "result": 53, "unit": "%"}, {"measurement": "reduction of total charge transfer", "setting": "[5]", "result": "85% and 45%"}, {"measurement": "reduction of total charge transfer of EPSCNMDA", "setting": "[5]", "result": "80% and 45% and 45±2%"}]}
{"molecule": "D-AP5 [reference compound]", "values": [{"measurement": "theta-burst-induced changes of Pr (F2/F1, N2/N1, S2/S1) in presence of NMDAR blocker", "setting": "[2]", "result": "No detectable changes of Pr"}, {"measurement": "effect of NMDA antagonist on the increase in postsynaptic current", "setting": "[6]", "result": "blocked it"}]}
{"molecule": "L-Ile", "values": [{"measurement": "potency as potentiator of GABAB receptor-mediated hyperpolarizing responses to baclofen", "setting": "[1]", "result": "Most potent"}]}
{"molecule": "B1", "values": [{"measurement": "FM dye uptake by structural synaptic terminals", "setting": "[7]", "result": "all structural synaptic terminals became capable of taking up FM dye"}]}
